The text below walks through data of ChEMBL document CHEMBL5537113, “Discovery of 1,2-diaryl-3-oxopyrazolidin-4-carboxamides as a new class of MurA enzyme inhibitors and characterization of their antibacterial activity” (Eur J Med Chem, 2023).

The source made the active and inactive calls. The calls are words filed in the database; no cut-off is given here.

One series has as its system Escherichia coli. Briefly: Antibacterial activity against Escherichia coli harboring tolC deletion mutant assessed as reduction in microbial growth incubated for 16 hrs by serial dilution method. The series is classed as functional.
In series [1] the target is UDP-N-acetylglucosamine 1-carboxyvinyltransferase (Escherichia coli K-12) (UniProt P0A749). The series is described as follows: Inhibition of Escherichia coli K12 His-tagged MurA expressed in Escherichia coli BL21 cells at 50 uM using UNAG as substrate pre incubated for 15 mins followed by substrate addition and measured after 15 mins by microplate reader analysis relative to control. To be noted: time 30.0 min.

Series [2] addresses UDP-N-acetylglucosamine 1-carboxyvinyltransferase (Escherichia coli K-12, UniProt P0A749). Briefly: Inhibition of Escherichia coli K12 His-tagged MurA expressed in Escherichia coli BL21 cells using UNAG as substrate pre incubated for 15 mins followed by substrate addition and measured after 15 mins by microplate reader analysis.
The subject of series [3] is Staphylococcus aureus. The series is described as follows: Antibacterial activity against Staphylococcus aureus Newman D2C NCTC 10833 assessed as reduction in microbial growth incubated for 16 hrs by serial dilution method. The series is classed as functional.
The nature of series [4]: Drug uptake in Escherichia coli harboring tolC deletion mutant at 10 uM incubated for 30 mins by LC analysis. The class given is ADME. To be noted: 0.5 h.
A short description of series [5]: Drug uptake in Escherichia coli harboring tolC deletion mutant assessed per 1.6x10^9 cells at 10 uM incubated for 30 mins by LC analysis. The class given is ADME. To be noted: 0.5 h.
The test system of series [6] is Staphylococcus aureus. Briefly: Antibacterial activity against methicillin sensitive Staphylococcus aureus NRS107 assessed as reduction in microbial growth by CLSI based broth microdilution method. The class given is functional. On the technique in general: Broth dilution looks for growth in wells or tubes with falling amounts of substance.
Series [7] concerns Staphylococcus aureus. Briefly: Antibacterial activity against methicillin resistant Staphylococcus aureus NRS119 assessed as reduction in microbial growth by CLSI based broth microdilution method. The class given is functional.
The subject of series [8] is Staphylococcus aureus. The series is described as follows: Antibacterial activity against methicillin resistant Staphylococcus aureus USA300 assessed as reduction in microbial growth by CLSI based broth microdilution method. The class given is functional.
Series [9] has as its system Staphylococcus aureus. Briefly: Antibacterial activity against vancomycin resistant Staphylococcus aureus 10 assessed as reduction in microbial growth by CLSI based broth microdilution method. The series is classed as functional.
For the next series, the system named is Clostridioides difficile. Briefly: Antibacterial activity against Clostridioides difficile ATCC BAA1870 assessed as reduction in microbial growth incubated for 48 hrs by broth microdilution method. The class given is functional.

Chain of UDP-N-acetylglucosamine 1-carboxyvinyltransferase (P0A749 whole entry): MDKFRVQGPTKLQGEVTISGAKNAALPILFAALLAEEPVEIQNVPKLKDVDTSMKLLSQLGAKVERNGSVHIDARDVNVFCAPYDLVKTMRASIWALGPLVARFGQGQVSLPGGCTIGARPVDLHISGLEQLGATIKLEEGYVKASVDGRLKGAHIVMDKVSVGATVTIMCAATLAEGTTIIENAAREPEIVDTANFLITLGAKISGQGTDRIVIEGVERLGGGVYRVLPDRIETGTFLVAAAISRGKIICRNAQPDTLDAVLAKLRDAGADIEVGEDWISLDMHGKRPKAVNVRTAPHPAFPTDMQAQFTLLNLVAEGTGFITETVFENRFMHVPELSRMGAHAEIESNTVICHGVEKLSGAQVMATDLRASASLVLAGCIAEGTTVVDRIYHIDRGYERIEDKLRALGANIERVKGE
Chain of UDP-N-acetylglucosamine 1-carboxyvinyltransferase (Escherichia coli K-12) (P0A749 whole entry): as above

`O=C(Nc1ncc(Cl)s1)C1CN(c2cccc(Cl)c2)N(c2cccc(Cl)c2)C1=O` (stereo not given): the minimal inhibitory concentration (MIC) in the series with Escherichia coli and in the series with Staphylococcus aureus [3] was over 40 µM each time. Also, the inhibition in series [1] came out at 67.7%. This compound returned an IC50 in [2] of 24 µM.

Turning to `O=C1SCCC1NC(=O)C1CN(c2cccc(Cl)c2)N(c2cccc(Cl)c2)C1=O` (stereo not given), the MIC is 17 µM with Escherichia coli and 11 µM with Staphylococcus aureus [3]. For the same compound, the inhibition in series [1] was found to be 35%.

In the case of `O=C1SCCC1NC(=O)C1CN(c2ccccc2)N(c2ccccc2)C1=O` (stereo not given), the minimal inhibitory concentration (MIC) in the series with Escherichia coli and in the series with Staphylococcus aureus [3] was over 40 µM in each case. Also, the inhibition result in series [1] is “inactive”.

On to `O=C(NCc1ccccn1)C1CN(c2cccc(Cl)c2)N(c2cccc(Cl)c2)C1=O` (stereo not given), for which the MIC with Escherichia coli and in the series on Staphylococcus aureus [3] was over 40 µM throughout. The inhibition result in [1] is “inactive”.

On to `CN1C(=O)C(C(=O)NC2CCSC2=O)CN1c1cccc(Cl)c1` (stereo not given), for which the MIC in the series on Escherichia coli and in the series with Staphylococcus aureus [3] was over 40 µM in each case. Besides, in series [1], the inhibition result is “inactive”.

In the case of `O=C(Nc1ccc2[nH]cnc2c1)C1CN(c2cccc(Cl)c2)N(c2cccc(Cl)c2)C1=O` (stereo not given), the minimum inhibitory concentration (MIC) in the series with Escherichia coli is 18 µM; in the series on Staphylococcus aureus [3], over 40 µM. The compound further showed an inhibition in [1] of 74.2%. This compound also returned a half-maximal inhibitory concentration (IC50) in series [2] of 33.5 µM.

`O=C(Nc1nc2ccccc2s1)C1CN(c2cccc(Cl)c2)N(c2cccc(Cl)c2)C1=O` (stereo not given): the minimum inhibitory concentration (MIC) in the series on Escherichia coli and in the series with Staphylococcus aureus [3] was over 40 µM in each case. The compound also yielded an inhibition in series [1] of 65.2%. In series [2], this compound registered a concentration for half-maximal inhibition (IC50) of 18 µM. For the same compound, the Drug uptake in series [4] stood at 573 nM; in series [5], 19 µM.

On to `O=C(Nc1ccc2cn[nH]c2c1)C1CN(c2cccc(Cl)c2)N(c2cccc(Cl)c2)C1=O` (stereo not given), for which the MIC is 20 µM in the series with Escherichia coli and over 40 µM in the series with Staphylococcus aureus [3]. In series [1], the inhibition stood at 65.2%. The IC50 in [2] was 35.4 µM.

Take `O=C(Nc1nccs1)C1CN(c2cccc(Cl)c2)N(c2cccc(Cl)c2)C1=O` (stereo not given): the minimum inhibitory concentration (MIC) in the series with Escherichia coli and with Staphylococcus aureus [3] was over 40 µM in each case. The inhibition in series [1] was 17.8%.

Turning to `O=C(Nc1cncc(Cl)c1)C1CN(c2cccc(Cl)c2)N(c2cccc(Cl)c2)C1=O` (stereo not given), the MIC in the series on Escherichia coli and in the series on Staphylococcus aureus [3] was over 40 µM each time. This compound also yielded an inhibition in series [1] of 18.2%.

For the compound `O=C(Nc1ccsc1)C1CN(c2cccc(Cl)c2)N(c2cccc(Cl)c2)C1=O` (stereo not given), the MIC in the series on Escherichia coli and in the series with Staphylococcus aureus [3] was over 40 µM in each case. Also, the inhibition in series [1] was determined as 24.7%.

Regarding `CN1C(=O)C(C(=O)Nc2ncc(C#N)s2)CN1c1cccc(Cl)c1` (stereo not given), the MIC with Escherichia coli and in the series on Staphylococcus aureus [3] was over 40 µM throughout. In addition, the inhibition result in series [1] is “inactive”.

With `N#Cc1ccc(NC(=O)C2CN(c3cccc(Cl)c3)N(c3cccc(Cl)c3)C2=O)cn1` (stereo not given), the MIC with Escherichia coli and in the series on Staphylococcus aureus [3] was over 40 µM in each case. This compound also showed an inhibition in [1] of 32.2%.

As for `O=C(Nc1cccnc1)C1CN(c2cccc(Cl)c2)N(c2cccc(Cl)c2)C1=O` (stereo not given), the results for the MIC in the series with Escherichia coli and in the series with Staphylococcus aureus [3] were 38 µM and over 40 µM, respectively. Besides, the inhibition in series [1] stood at 8.7%.

`O=C(Nc1cccc(-c2cn[nH]c2)c1)C1CN(c2cccc(Cl)c2)N(c2cccc(Cl)c2)C1=O` (stereo not given): the minimum inhibitory concentration (MIC) in the series with Escherichia coli and with Staphylococcus aureus [3] was over 40 µM throughout. The compound also yielded an inhibition in [1] of 60.4%. In series [2], this compound came in with an IC50 of 31 µM.

Regarding `Cc1csc(NC(=O)C2CN(c3cccc(Cl)c3)N(c3cccc(Cl)c3)C2=O)n1` (stereo not given), the results for the MIC with Escherichia coli and in the series on Staphylococcus aureus [3] were 40 µM and over 40 µM, respectively. Moreover, the inhibition in series [1] came to 60.2%. For the same compound, in series [2], 39.3 µM corresponded to half-maximal inhibition (IC50).

For the compound `CSc1nnc(NC(=O)C2CN(c3cccc(Cl)c3)N(c3cccc(Cl)c3)C2=O)s1` (stereo not given), the minimal inhibitory concentration (MIC) was 38 µM in the series with Escherichia coli and over 40 µM in the series on Staphylococcus aureus [3]. The same compound came in with an inhibition in [1] of 63.4%. Moreover, inhibition in [2] was half-maximal at 26.9 µM (IC50).

As for `Cc1cnc(NC(=O)C2CN(c3cccc(Cl)c3)N(c3cccc(Cl)c3)C2=O)s1` (stereo not given), the values for the MIC in the series on Escherichia coli and in the series with Staphylococcus aureus [3] were 40 µM and over 40 µM, respectively. The compound further showed an inhibition in series [1] of 59.6%. The compound also showed an IC50 in [2] of 22 µM.

With `N#Cc1cnc(NC(=O)C2CN(c3ccccc3)N(c3ccccc3)C2=O)s1` (stereo not given), the minimum inhibitory concentration (MIC) with Escherichia coli and with Staphylococcus aureus [3] was over 40 µM in each case. The inhibition entry in series [1] was “inactive”.

Regarding `O=C(NCc1ccncc1)C1CN(c2cccc(Cl)c2)N(c2cccc(Cl)c2)C1=O` (stereo not given), the minimal inhibitory concentration (MIC) in the series with Escherichia coli and in the series on Staphylococcus aureus [3] was over 40 µM each time. Moreover, the inhibition result in series [1] is “inactive”.

As to `O=C(Nc1ccc2[nH]ncc2c1)C1CN(c2cccc(Cl)c2)N(c2cccc(Cl)c2)C1=O` (stereo not given), the MIC in the series on Escherichia coli was 23 µM; with Staphylococcus aureus [3] it was over 40 µM. Moreover, in series [1], the inhibition came out at 59.5%. This compound also had an IC50 in series [2] of 44.1 µM.

On to `O=C(Nc1ccccn1)C1CN(c2cccc(Cl)c2)N(c2cccc(Cl)c2)C1=O` (stereo not given), for which the minimum inhibitory concentration (MIC) in the series with Escherichia coli and in the series on Staphylococcus aureus [3] was over 40 µM in each case. Further, the inhibition in series [1] was found to be 30.5%.

Turning to `CC(=O)NC[C@H]1CN(c2ccc(N3CCOCC3)c(F)c2)C(=O)O1` [LINEZOLID], the minimum inhibitory concentration (MIC) with Staphylococcus aureus [6] turned out to be 0.5 µg/mL; in the series on Staphylococcus aureus [7], 32 µg/mL; in the series with Staphylococcus aureus [8], 1 µg/mL; in the series with Staphylococcus aureus [9] it was 0.5 µg/mL; in the series on Clostridioides difficile it was 1 µg/mL.

In the case of `O=C(NCc1cccnc1)C1CN(c2cccc(Cl)c2)N(c2cccc(Cl)c2)C1=O` (stereo not given), the MIC in the series on Escherichia coli and in the series on Staphylococcus aureus [3] was over 40 µM in each case. Further, in series [1], the inhibition amounted to 11.8%.

Regarding `O=C(Nc1nc(C(F)(F)F)cs1)C1CN(c2cccc(Cl)c2)N(c2cccc(Cl)c2)C1=O` (stereo not given), the MIC in the series with Escherichia coli is over 40 µM; with Staphylococcus aureus [3], 40 µM. In series [1], this compound gave an inhibition of 59.2%. The compound further showed a concentration for half-maximal inhibition (IC50) in series [2] of 38.6 µM.

As to `O=C(Nc1ccc2ncsc2c1)C1CN(c2cccc(Cl)c2)N(c2cccc(Cl)c2)C1=O` (stereo not given), the MIC with Escherichia coli and in the series on Staphylococcus aureus [3] was over 40 µM in each case. Moreover, the inhibition in series [1] turned out to be 44.7%.

For the compound `O=C(NCc1ccco1)C1CN(c2cccc(Cl)c2)N(c2cccc(Cl)c2)C1=O` (stereo not given), the MIC with Escherichia coli and in the series with Staphylococcus aureus [3] was over 40 µM in each case. The compound also registered an inhibition in [1] of 34%.

What is called MIC is the least concentration at which growth counts as inhibited. By inhibition is commonly meant the share of the control response that was lost under treatment. The IC50 is the midpoint of a concentration-inhibition curve.
